# In patent US8575183B2, “Heterocyclic compounds and their uses” (priority 2010, dated 2013):
# Several values for one entry are separate records, joined by “and”; a condition that tells them apart may be missing. Identical values can stand only once.
# Target: T1, PI3k δ (Homo sapiens, UniProt O00329)
# T1 construct: Full length p110 subunits of PI3k α, β and δ; polyHis (N); made in house; host or cells: Sf9 insect cells (baculovirus)
# Experiment: biochemical
# Format: biochemical
# Conditions: not given
# Method: Full length p110 subunits of PI3k α, β and δ, N-terminally labeled with polyHis tag, were coexpressed with p85 with Baculo virus expression vectors in sf9 insect cells. P110/p85 heterodimers were purified by sequential Ni-NTA, Q-HP, Superdex-100 chromatography. Purified α, β and δ isozymes were stored at −20° C. in 20 mM Tris, pH 8, 0.2M NaCl, 50% glycerol, 5 mM DTT, 2 mM Na cholate. […] The γ isozyme was purified by sequential Ni-NTA, Superdex-200, Q-HP chromatography. The γ isozyme was stored frozen at −80° C. in NaH2PO4, pH 8, 0.2M NaCl, 1% ethylene glycol, 2 mM β-mercaptoethanol.
# Phospatidyl inositol phosphoacceptor, Ptdlns(4,5)P2 P4508, was from Echelon Biosciences. […] Test compounds were dissolved in dimethyl sulfoxide and diluted with three-fold serial dilutions. The compound in DMSO (1 μL) was added per test well, and the inhibition relative to reactions containing no compound, with and without enzyme was determined. After assay incubation at rt, the reaction was stopped and residual ATP determined by addition of an equal volume of a commercial ATP bioluminescence kit (Perkin Elmer EasyLite) according to the manufacturer's instructions, and detected using a AnalystGT luminometer.
# T1 sequence (O00329 whole entry): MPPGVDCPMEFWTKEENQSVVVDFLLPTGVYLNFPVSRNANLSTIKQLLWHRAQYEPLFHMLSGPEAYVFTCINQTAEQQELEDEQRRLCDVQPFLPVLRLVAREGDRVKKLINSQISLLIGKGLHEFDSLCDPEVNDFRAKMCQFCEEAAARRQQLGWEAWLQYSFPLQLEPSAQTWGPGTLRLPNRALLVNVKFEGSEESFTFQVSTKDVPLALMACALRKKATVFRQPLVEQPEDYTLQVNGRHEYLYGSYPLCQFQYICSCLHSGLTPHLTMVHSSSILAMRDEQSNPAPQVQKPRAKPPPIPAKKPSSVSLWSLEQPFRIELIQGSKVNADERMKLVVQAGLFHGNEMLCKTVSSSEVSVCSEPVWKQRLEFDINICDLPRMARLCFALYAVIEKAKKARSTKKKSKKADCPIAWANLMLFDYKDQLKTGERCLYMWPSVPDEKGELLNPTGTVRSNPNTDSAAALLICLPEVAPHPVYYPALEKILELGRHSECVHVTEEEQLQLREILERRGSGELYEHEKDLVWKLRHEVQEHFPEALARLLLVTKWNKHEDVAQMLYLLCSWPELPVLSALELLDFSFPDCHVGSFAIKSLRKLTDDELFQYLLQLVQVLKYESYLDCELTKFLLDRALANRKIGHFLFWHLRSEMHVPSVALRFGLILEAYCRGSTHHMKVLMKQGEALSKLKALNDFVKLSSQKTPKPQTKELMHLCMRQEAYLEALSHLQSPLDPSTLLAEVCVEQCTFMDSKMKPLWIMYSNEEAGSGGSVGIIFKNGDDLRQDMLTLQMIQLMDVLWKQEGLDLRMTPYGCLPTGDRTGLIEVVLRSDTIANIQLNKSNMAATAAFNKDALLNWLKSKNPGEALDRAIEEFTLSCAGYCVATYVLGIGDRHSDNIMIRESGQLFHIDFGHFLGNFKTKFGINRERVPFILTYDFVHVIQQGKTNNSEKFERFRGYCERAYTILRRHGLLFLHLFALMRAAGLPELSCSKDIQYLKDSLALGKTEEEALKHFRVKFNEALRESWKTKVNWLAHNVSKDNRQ
# T1 sequence (P27986 whole entry partner): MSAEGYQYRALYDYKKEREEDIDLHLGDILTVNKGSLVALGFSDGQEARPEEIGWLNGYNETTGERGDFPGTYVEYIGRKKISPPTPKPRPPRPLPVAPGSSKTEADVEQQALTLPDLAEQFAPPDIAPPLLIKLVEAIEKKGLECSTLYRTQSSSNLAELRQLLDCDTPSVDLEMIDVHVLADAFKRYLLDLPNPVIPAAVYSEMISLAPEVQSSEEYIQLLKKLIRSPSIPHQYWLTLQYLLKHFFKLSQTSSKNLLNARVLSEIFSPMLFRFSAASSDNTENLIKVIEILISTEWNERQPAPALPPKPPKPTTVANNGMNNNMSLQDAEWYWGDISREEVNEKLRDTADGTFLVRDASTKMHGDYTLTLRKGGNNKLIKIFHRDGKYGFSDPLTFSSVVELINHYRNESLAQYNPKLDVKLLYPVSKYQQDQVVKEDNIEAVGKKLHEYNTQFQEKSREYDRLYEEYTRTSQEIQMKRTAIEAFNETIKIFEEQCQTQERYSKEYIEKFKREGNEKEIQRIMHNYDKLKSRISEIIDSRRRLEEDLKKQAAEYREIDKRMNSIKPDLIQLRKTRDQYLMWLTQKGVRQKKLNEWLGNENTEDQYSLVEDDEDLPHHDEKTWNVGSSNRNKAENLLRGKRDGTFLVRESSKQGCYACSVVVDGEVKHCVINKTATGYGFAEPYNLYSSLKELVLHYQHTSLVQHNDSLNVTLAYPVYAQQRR
row,SMILES,Ki [nM]
1,"C[C@@H](Nc1ncnc(N)c1C#N)c1nc2ccc(F)cc2n1-c1cncc(-c2ccccn2)c1 [4-amino-6-(((1R)-1-(1-(2,3′-bipyridin-5′-yl)-6-fluoro-1H-benzimidazol-2-yl)ethyl)amino)-5-pyrimidinecarbonitrile]",1190
2,CC(Nc1ncnc(N)c1C#N)c1nc2cccc(S(C)(=O)=O)c2n1C1CC1 (stereo not shown),3.76

# Same assay, conditions: read-out: PI3k δ Ki
row,SMILES,Ki
1,CSc1cccc(-n2c([C@H](C)Nc3ncnc(N)c3C#N)nc3cc(F)ccc32)c1 [4-amino-6-(((1S)-1-(5-fluoro-1-(3-(methylsulfanyl)phenyl)-1H-benzimidazol-2-yl)ethyl)amino)-5-pyrimidinecarbonitrile],44.1 nM
2,"C[C@H](Nc1ncnc(N)c1C#N)c1nc2cccnn2c1-c1ccccn1 [4-amino-6-(((1S)-1-(3-(2-pyridinyl)imidazo[1,2-b]pyridazin-2-yl)ethyl)amino)-5-pyrimidinecarbonitrile]",2010 nM
3,C[C@H](Nc1ncnc2[nH]cnc12)c1nc2ccc(F)cc2n1-c1cncc(F)c1 [N-((1S)-1-(6-fluoro-1-(5-fluoro-3-pyridinyl)-1H-benzimidazol-2-yl)ethyl)-9H-purin-6-amine],3.77 nM
4,"C[C@H](Nc1ncnc(N)c1C#N)c1nc2cnccn2c1-c1ccccn1 [4-amino-6-(((1S)-1-(3-(2-pyridinyl)imidazo[1,2-a]pyrazin-2-yl)ethyl)amino)-5-pyrimidinecarbonitrile]",2160 nM
5,"COC(=O)c1cccc2nc([C@H](C)Nc3ncnc(N)c3C#N)c(-c3ccccc3)n12 [methyl 2-((1S)-1-((6-amino-5-cyano-4-pyrimidinyl)amino)ethyl)-3-phenylimidazo[1,2-a]pyridine-5-carboxylate]",39 nM
6,"C[C@H](Nc1ncnc(N)c1C#N)c1nc2cccc(S(C)(=O)=O)c2n1Cc1cc(F)cc(F)c1 [4-amino-6-(((1S)-1-(1-(3,5-difluorobenzyl)-7-(methylsulfonyl)-1H-benzimidazol-2-yl)ethyl)amino)-5-pyrimidinecarbonitrile]",295 nM
7,C[C@H](Nc1ncnc(N)c1C#N)c1nc2ccc(F)cc2n1-c1cncc(NS(C)(=O)=O)c1 [N-(5-(2-((1S)-1-((6-amino-5-cyano-4-pyrimidinyl)amino)ethyl)-6-fluoro-1H-benzimidazol-1-yl)-3-pyridinyl)methanesulfonamide],11.9 nM
8,"CNC(=O)c1cccc2nc([C@H](C)Nc3ncnc(N)c3C#N)c(-c3ccccc3)n12 [2-((1S)-1-((6-amino-5-cyano-4-pyrimidinyl)amino)ethyl)-N-methyl-3-phenylimidazo[1,2-a]pyridine-5-carboxamide]",26.2 nM
9,C[C@H](Nc1ncnc(N)c1C#N)c1nc2cccc(S(C)(=O)=O)c2n1CC1CC1 [4-amino-6-(((1S)-1-(1-(cyclopropylmethyl)-7-(methylsulfonyl)-1H-benzimidazol-2-yl)ethyl)amino)-5-pyrimidinecarbonitrile],2.2 nM
10,C[C@@H](Nc1ncnc(N)c1C#N)c1nc2cccc(C#N)c2n1-c1cncc(F)c1 [2-((1R)-1-((6-amino-5-cyano-4-pyrimidinyl)amino)ethyl)-1-(5-fluoro-3-pyridinyl)-1H-benzimidazole-7-carbonitrile],325 nM
11,C[C@H](Nc1ncnc(N)c1C#N)c1nc2cccc(S(C)(=O)=O)c2n1Cc1ccc(F)cc1 [4-amino-6-(((1S)-1-(1-(4-fluorobenzyl)-7-(methylsulfonyl)-1H-benzimidazol-2-yl)ethyl)amino)-5-pyrimidinecarbonitrile],26.8 nM
12,CNC(=O)c1cccc2nc([C@@H](C)Nc3ncnc(N)c3C#N)n(-c3cncc(F)c3)c12 [2-((1R)-1-((6-amino-5-cyano-4-pyrimidinyl)amino)ethyl)-1-(5-fluoro-3-pyridinyl)-N-methyl-1H-benzimidazole-7-carboxamide],1370 nM
13,"N#Cc1c(N)ncnc1NCc1nc2c(Cl)cccn2c1-c1ccccc1 [4-amino-6-(((8-chloro-3-phenylimidazo[1,2-a]pyridin-2-yl)methyl)amino)-5-pyrimidinecarbonitrile]",230 nM
14,C[C@H](Nc1ncnc(N)c1C#N)c1nc2ccc(F)cc2n1-c1cccc(C#N)c1 [4-amino-6-(((1S)-1-(1-(3-cyanophenyl)-6-fluoro-1H-benzimidazol-2-yl)ethyl)amino)-5-pyrimidinecarbonitrile],18.8 nM
15,C[C@H](Nc1ncnc(N)c1C#N)c1nc2c(S(C)(=O)=O)cccc2n1Cc1ccc(F)cc1 [4-amino-6-(((1S)-1-(1-(4-fluorobenzyl)-4-(methylsulfonyl)-1H-benzimidazol-2-yl)ethyl)amino)-5-pyrimidinecarbonitrile],2410 nM
16,CC[C@H](Nc1ncnc(N)c1C#N)c1nc2cccc(C(F)(F)F)c2n1CC1CC1 [4-amino-6-(((1S)-1-(1-(cyclopropylmethyl)-7-(trifluoromethyl)-1H-benzimidazol-2-yl)propyl)amino)-5-pyrimidinecarbonitrile],53.1 nM

row,SMILES,Ki
1,C[C@H](Nc1ncnc(N)c1C#N)c1nc2cccc(C#N)c2n1-c1cncc(F)c1 [2-((1S)-1-((6-amino-5-cyano-4-pyrimidinyl)amino)ethyl)-1-(5-fluoro-3-pyridinyl)-1H-benzimidazole-7-carbonitrile],171 nM
2,"COC(=O)c1cccc2nc([C@H](C)Nc3ncnc(N)c3C#N)c(-c3cncc(F)c3)n12 [methyl 2-((1S)-1-((6-amino-5-cyano-4-pyrimidinyl)amino)ethyl)-3-(5-fluoro-3-pyridinyl)imidazo[1,2-a]pyridine-5-carboxylate]",314 nM
3,"C[C@H](Nc1ncnc(N)c1C#N)c1nc2cccc(F)c2n1-c1cc(F)cc(F)c1 [4-amino-6-(((1S)-1-(1-(3,5-difluorophenyl)-7-fluoro-1H-benzimidazol-2-yl)ethyl)amino)-5-pyrimidinecarbonitrile]",3.7 nM
4,C[C@@H](Nc1ncnc(N)c1C#N)c1nc2cc(F)ccc2n1-c1ccccn1 [4-amino-6-(((1R)-1-(5-fluoro-1-(2-pyridinyl)-1H-benzimidazol-2-yl)ethyl)amino)-5-pyrimidinecarbonitrile],7 nM
5,CNC(=O)c1cccc(-n2c([C@@H](C)Nc3ncnc(N)c3C#N)nc3ccc(F)cc32)c1 [3-(2-((1R)-1-((6-amino-5-cyano-4-pyrimidinyl)amino)ethyl)-6-fluoro-1H-benzimidazol-1-yl)-N-methylbenzamide],4670 nM
6,C[C@@H](Nc1ncnc(N)c1C#N)c1nc2cccc(S(C)(=O)=O)c2n1C1CC1 [4-amino-6-(((1R)-1-(1-cyclopropyl-7-(methylsulfonyl)-1H-benzimidazol-2-yl)ethyl)amino)-5-pyrimidinecarbonitrile],1000 nM
7,C[C@H](Nc1ncnc(N)c1C#N)c1nc2ccc(F)cc2n1-c1cccc(F)n1 [4-amino-6-(((1S)-1-(6-fluoro-1-(6-fluoro-2-pyridinyl)-1H-benzimidazol-2-yl)ethyl)amino)-5-pyrimidinecarbonitrile],8.89 nM
8,C[C@H](Nc1ncnc(N)c1C#N)c1nc2ccc(F)cc2n1-c1cccc(-c2ccccn2)c1 [4-amino-6-(((1S)-1-(6-fluoro-1-(3-(2-pyridinyl)phenyl)-1H-benzimidazol-2-yl)ethyl)amino)-5-pyrimidinecarbonitrile],8.9 nM and 3.8 nM
9,C[C@H](Nc1ncnc(N)c1C#N)c1nc2cc(F)ccc2n1CC1CC1 [4-amino-6-(((1S)-1-(1-(cyclopropylmethyl)-5-fluoro-1H-benzimidazol-2-yl)ethyl)amino)-5-pyrimidinecarbonitrile],6 nM and 25.8 nM
10,"CC(Nc1ncnc(N)c1C#N)c1sc2ccccc2c1-c1cc(F)cc(F)c1 (stereo not shown) [4-amino-6-((1-(3-(3,5-difluorophenyl)-1-benzothiophen-2-yl)ethyl)amino)-5-pyrimidinecarbonitrile]",3.33 nM
11,"C[C@H](Nc1ncnc(N)c1C#N)c1nc2ccc(Cl)cc2n1-c1cc(F)cc(F)c1 [4-amino-6-(((1S)-1-(6-chloro-1-(3,5-difluorophenyl)-1H-benzimidazol-2-yl)ethyl)amino)-5-pyrimidinecarbonitrile]",2.7 nM
12,CNC(=O)c1cccc2nc([C@H](C)Nc3ncnc4[nH]cnc34)n(C3CC3)c12 [1-cyclopropyl-N-methyl-2-((1S)-1-(9H-purin-6-ylamino)ethyl)-1H-benzimidazole-7-carboxamide],14.6 nM
13,C[C@@H](Nc1ncnc(N)c1C#N)c1nc2ccc(F)cc2n1-c1cncc(NS(C)(=O)=O)c1 [N-(5-(2-((1R)-1-((6-amino-5-cyano-4-pyrimidinyl)amino)ethyl)-6-fluoro-1H-benzimidazol-1-yl)-3-pyridinyl)methanesulfonamide],600 nM
14,CC(Nc1ncnc(N)c1C#N)c1sc2ccccc2c1-c1ccccc1 (stereo not shown) [4-amino-6-((1-(3-phenyl-1-benzothiophen-2-yl)ethyl)amino)-5-pyrimidinecarbonitrile],2.66 nM
15,"C[C@@H](Nc1ncnc(N)c1C#N)c1nc2c(F)cccc2n1-c1cc(F)cc(F)c1 [4-amino-6-(((1R)-1-(1-(3,5-difluorophenyl)-4-fluoro-1H-benzimidazol-2-yl)ethyl)amino)-5-pyrimidinecarbonitrile]",4180 nM
16,C[C@@H](Nc1ncnc(N)c1C#N)c1nc2cc(F)ccc2n1-c1cncc(F)c1 [4-amino-6-(((1R)-1-(5-fluoro-1-(5-fluoro-3-pyridinyl)-1H-benzimidazol-2-yl)ethyl)amino)-5-pyrimidinecarbonitrile],2820 nM
